This is an account of results in US20100003246A1, “Novel heterocyclic compounds and uses therof” (priority 2008, published 2010).

A word on the IC50: it is the concentration that inhibits the measured activity by half.

The assay concerns the target T1, b-Raf(V600E) (Homo sapiens, UniProt P15056, V600E).
T1 construct: made in house
As to the kind of experiment: Raf/Mek Amplified Luminescence Proximity Homogeneous Assay (Alpha Screen), b-Raf(V600E). The format is biochemical. Conditions: mutant b-Raf(V600E), read-out: mut-b-RAF (IC50 in uM). The gist of the method: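 Active b-Raf(V600E) (~4 pM) pre-incubated 60 min at room temperature with compound and kinase-dead biotinylated Mek (~10 nM) in Tris pH 7.5, MgCl2, BSA, DTT; ATP-started reaction ran 3 h, EDTA-stopped. Phospho-MEK detected by anti-p-MEK AlphaScreen luminescence; IC50 by non-linear regression.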

T1 sequence (P15056 whole entry V600E): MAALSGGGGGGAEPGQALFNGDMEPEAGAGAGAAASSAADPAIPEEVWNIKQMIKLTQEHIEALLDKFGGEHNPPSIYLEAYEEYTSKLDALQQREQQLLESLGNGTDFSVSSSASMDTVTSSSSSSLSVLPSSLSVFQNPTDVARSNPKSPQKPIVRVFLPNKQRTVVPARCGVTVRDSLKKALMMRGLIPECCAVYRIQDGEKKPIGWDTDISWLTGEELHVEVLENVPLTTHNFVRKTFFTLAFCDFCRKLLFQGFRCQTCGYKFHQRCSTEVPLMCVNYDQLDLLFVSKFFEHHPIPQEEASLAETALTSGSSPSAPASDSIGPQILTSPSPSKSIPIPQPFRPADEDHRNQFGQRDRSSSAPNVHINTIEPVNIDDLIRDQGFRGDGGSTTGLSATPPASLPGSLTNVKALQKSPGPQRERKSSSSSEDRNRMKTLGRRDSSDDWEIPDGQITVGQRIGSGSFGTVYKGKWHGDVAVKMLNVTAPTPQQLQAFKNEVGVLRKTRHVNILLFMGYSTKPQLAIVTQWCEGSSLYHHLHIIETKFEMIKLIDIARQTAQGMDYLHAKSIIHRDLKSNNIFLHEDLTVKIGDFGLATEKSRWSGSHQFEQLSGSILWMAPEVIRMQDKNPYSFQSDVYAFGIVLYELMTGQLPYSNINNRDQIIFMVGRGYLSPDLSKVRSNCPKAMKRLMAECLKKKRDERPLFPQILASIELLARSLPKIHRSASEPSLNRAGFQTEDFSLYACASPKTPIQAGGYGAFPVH

In the case of `COc1cc(-c2nc(C3CCCCC3)[nH]c2-c2ccncc2)cnc1N` [Compound 118, 5-(2-cyclohexyl-5-(pyridin-4-yl)-1H-imidazol-4-yl)-3-methoxypyridin-2-amine], the IC50 was 2 nM. As for `Fc1ccc(-c2nc(-c3ccncc3)c(-c3ccc4nccn4c3)[nH]2)cc1` [Compound 141, 6-(2-(4-fluorophenyl)-4-(pyridin-4-yl)-1H-imidazol-5-yl)imidazo[1,2-a]pyridine], the IC50 came out at 618 nM. Consider `Fc1ccc(-c2nc(-c3ccncc3)c(-c3cnc4[nH]cc(Br)c4c3)[nH]2)cc1` [Compound 151, 3-bromo-5-(2-(4-fluorophenyl)-4-(pyridin-4-yl)-1H-imidazol-5-yl)-1H-pyrrolo[2,3-b]pyridine], for which the IC50 came to 0.7 nM. Consider `COc1cc(-c2[nH]c(-c3ccccc3C)nc2-c2ccncc2)cnc1N` [Compound 138, 3-methoxy-5-(4-(pyridin-4-yl)-2-o-tolyl-1H-imidazol-5-yl)pyridin-2-amine], for which the IC50 came out at 1.2 nM. On to `COc1cc(-c2[nH]c(C(C)(C)C)nc2-c2ccnc(N[C@@H](C)CNC(=O)[C@H](C)OC)n2)cnc1N` [Compound 207, (S)-N-((S)-2-(4-(5-(6-amino-5-methoxypyridin-3-yl)-2-tert-butyl-1H-imidazol-4-yl)pyrimidin-2-ylamino)propyl)-2-methoxypropanamide], for which the half-inhibitory concentration (IC50) came to 15.8 nM.

`COCCNc1nccc(-c2nc(-c3ccc(F)cc3)[nH]c2-c2cnc(N)c(OC)c2)n1` [Compound 161, 4-(5-(6-amino-5-methoxypyridin-3-yl)-2-(4-fluorophenyl)-1H-imidazol-4-yl)-N-(2-methoxyethyl)pyrimidin-2-amine]: the IC50 was 2.2 nM. Turning to `COCC(=O)N[C@@H](C)CNc1nccc(-c2[nH]c(-c3ccc(C(F)(F)F)cc3)nc2-c2cnc(N)c(OC)n2)n1` [Example 4, (S)—N-(1-(4-(4-(5-amino-6-methoxypyrazin-2-yl)-2-(4-(trifluoromethyl)phenyl)-1H-imidazol-5-yl)pyrimidin-2-ylamino)propan-2-yl)-2-methoxyacetamide], the 50% inhibitory concentration (IC50) came to 0.1 nM. The same measure for `COc1cc(-c2[nH]c(-c3ccc(F)cc3)nc2-c2ccoc2)cnc1N` [Compound 134, 5-(2-(4-fluorophenyl)-4-(furan-3-yl)-1H-imidazol-5-yl)-3-methoxypyridin-2-amine]: 1.4 nM; for `COc1cc(-c2nc(C(C)(C)C)[nH]c2-c2ccnc(Nc3cccc(C(F)(F)F)c3)n2)cnc1N` [Compound 191, 4-(4-(6-amino-5-methoxypyridin-3-yl)-2-tert-butyl-1H-imidazol-5-yl)-N-(3-(trifluoromethyl)phenyl) pyrimidin-2-amine]: 0.4 nM.

Take `COc1ccc(-c2nc(-c3ccncc3)c(-c3cnc(N)c(OC)c3)[nH]2)cc1F` [Compound 108, 5-(2-(3-fluoro-4-methoxyphenyl)-4-(pyridin-4-yl)-1H-imidazo-5-yl)-3-methoxypyridin-2-amine]: the IC50 was 0.7 nM. The same measure for `COc1nc(-c2[nH]c(C)nc2-c2ccncc2)cnc1N` [Compound 50, 3-methoxy-5-(2-methyl-4-(pyridin-4-yl)-1H-imidazol-5-yl)pyrazin-2-amine]: 259 nM. The same measure for `COc1cc(-c2nc(C(C)(C)C)[nH]c2-c2ccnc(Nc3ccc(N4C[C@@H](C)O[C@@H](C)C4)nc3)n2)cnc1N` [Compound 184, 4-(4-(6-amino-5-methoxypyridin-3-yl)-2-tert-butyl-1H-imidazol-5-yl)-N-(6-((2R,6S)-2,6-dimethylmorpholino)-pyridin-3-yl)pyrimidin-2-amine]: 0.3 nM. With `COCC(=O)N1CCC[C@@H](Nc2nccc(-c3nc(-c4ccc(F)cc4)[nH]c3-c3cnc(N)c(OC)c3)n2)C1` [Compound 100, (R)-1-(3-(4-(5-(6-amino-5-methoxypyridin-3-yl)-2-(4-fluorophenyl)-1H-imidazol-4-yl)pyrimidin-2-ylamino)piperidin-1-yl)-2-methoxyethanone] the figure was 25.9 nM. For `CCNc1nccc(-c2nc(-c3ccc(F)cc3)[nH]c2-c2cnc(N)c(OC)c2)n1` [Compound 174, 4-(5-(6-amino-5-methoxypyridin-3-yl)-2-(4-fluorophenyl)-1H-imidazol-4-yl)-N-ethylpyrimidin-2-amine], the IC50 was determined as 2.3 nM. Consider `COC(=O)N[C@@H](C)CNc1nccc(-c2[nH]c(C3(C)CC3)nc2-c2cnc(N)c(OC)n2)n1` [Compound 251, (S)-methyl 1-(4-(4-(5-amino-6-methoxypyrazin-2-yl)-2-(1-methylcyclopropyl)-1H-imidazol-5-yl)pyrimidin-2-ylamino)propan-2-ylcarbamate], for which the IC50 was 0.04 nM. Consider `COc1cc(-c2[nH]c(-c3ccc(F)cc3)nc2-c2cnc(N)c(OC)c2)ccn1` [Compound 112, 5-(2-(4-fluorophenyl)-5-(2-methoxypyridin-4-yl)-1H-imidazol-4-yl)-3-methoxypyridin-2-amine], for which the IC50 turned out to be 737 nM. Consider `COc1cc(-c2nc(-c3ccc(C(F)(F)F)cc3)oc2-c2ccnc(NCC(C)C)n2)cnc1N` [Compound 224, 4-(4-(6-amino-5-methoxypyridin-3-yl)-2-(4-(trifluoromethyl)phenyl)oxazol-5-yl)-N-isobutylpyrimidin-2-amine], for which the IC50 amounted to 14 nM. For `COC(=O)N[C@@H](C)CNc1nccc(-c2nc(C(C)(C)C)[nH]c2-c2ccc3[nH]ccc3c2)n1` [Compound 240, (S)-methyl 1-(4-(2-tert-butyl-5-(1H-indol-5-yl)-1H-imidazol-4-yl)pyrimidin-2-ylamino)propan-2-ylcarbamate], the IC50 was found to be 13.8 nM. With `COc1cc(-c2[nH]c(-c3cccc4ncccc34)nc2-c2ccncc2)cnc1N` [Compound 169, 3-methoxy-5-(4-(pyridin-4-yl)-2-(quinolin-5-yl)-1H-imidazol-5-yl)pyridin-2-amine] the figure was 1.6 nM. The same measure for `COc1cc(-c2[nH]c(-c3ccc(OCCN(C)C)cc3)nc2-c2ccncc2)cnc1N` [Compound 114]: 6.4 nM; for `COc1ccc(CNc2nccc(-c3[nH]c(C(C)(C)C)nc3-c3cnc(N)c(OC)c3)n2)cc1` [Compound 192, 4-(4-(6-amino-5-methoxypyridin-3-yl)-2-tert-butyl-1H-imidazol-5-yl)-N-(4-methoxybenzyl)pyrimidin-2-amine]: 0.2 nM; for `COc1cc(-c2nc(C(C)(C)C)[nH]c2-c2ccnc(N)n2)cnc1N` [Compound 201, 4-(4-(6-amino-5-methoxypyridin-3-yl)-2-tert-butyl-1H-imidazol-5-yl)pyrimidin-2-amine]: 0.5 nM. With `COc1cc(-c2nc(-c3ccc(F)cc3)[nH]c2-c2ccnc(Nc3cccc(F)c3)n2)cnc1N` [Compound 172, 4-(4-(6-amino-5-methoxypyridin-3-yl)-2-(4-fluorophenyl)-1H-imidazol-5-yl)-N-(3-fluorophenyl)pyrimidin-2-amine] the figure was 1.4 nM; with `COc1cc(-c2[nH]c(-c3ccc(F)cc3)nc2-c2ccncc2Cl)cnc1N` [Compound 94, 5-(4-(3-chloropyridin-4-yl)-2-(4-fluorophenyl)-1H-imidazol-5-yl)-3-methoxypyridin-2-amine], 60.6 nM; with `Oc1ccc(-c2[nH]c(-c3ccccc3)nc2-c2ccncc2)cn1` [Compound 44, 5-(2-phenyl-4-(pyridin-4-yl)-1H-imidazol-5-yl)pyridin-2-ol], 465 nM. In the case of `Fc1ccc(-c2nc(-c3ccncc3)c(-c3cnc4c(c3)OCCN4)[nH]2)cc1` [Compound 142, 7-(2-(4-fluorophenyl)-4-(pyridin-4-yl)-1H-imidazol-5-yl)-3,4-dihydro-2H-pyrido[3,2-v][1,4]oxazine], the 50% inhibitory concentration (IC50) amounted to 382 nM.

With `COc1cc(-c2[nH]c(-c3ccc(F)cc3)nc2-c2ccnc(NC3CCCCC3)n2)cnc1N` [Compound 165, 4-(5-(6-amino-5-methoxypyridin-3-yl)-2-(4-fluorophenyl)-1H-imidazol-4-yl)-N-cyclohexylpyrimidin-2-amine], the IC50 stood at 48.3 nM. With `COCC(=O)NCCNc1nccc(-c2nc(-c3ccccc3)[nH]c2-c2cnc(N)c(OC)c2)n1` [Compound 68, N-(2-(4-(5-(6-amino-5-methoxypyridin-3-yl)-2-phenyl-1H-imidazol-4-yl)pyrimidin-2-ylamino)ethyl)-2-methoxyacetamide] the figure was 0.1 nM. With `COc1cc(-c2[nH]c(-c3ccc4[nH]ncc4c3)nc2-c2ccncc2)cnc1N` [Compound 167, 5-(2-(1H-indazol-5-yl)-4-(pyridin-4-yl)-1H-imidazol-5-yl)-3-methoxypyridin-2-amine] the figure was 0.7 nM. The same measure for `COc1cc(-c2sc(-c3ccccc3)nc2-c2ccncc2)cnc1N` [Example 15, 3-methoxy-5-(2-phenyl-4-(pyridine-4-yl)thiazol-5-yl)pyridine-2-amine]: 1.9 nM; for `COc1cc(-c2[nH]c(-c3ccc(C)cc3F)nc2-c2ccncc2)cnc1N` [Compound 145, 5-(2-(2-fluoro-4-methylphenyl)-4-(pyridin-4-yl)-1H-imidazol-5-yl)-3-methoxypyridin-2-amine]: 0.9 nM; for `COc1cc(-c2[nH]c(-c3ccc(S(N)(=O)=O)cc3)nc2-c2ccncc2)cnc1N` [Compound 121, 4-(5-(6-amino-5-methoxypyridin-3-yl)-4-(pyridin-4-yl)-1H-imidazol-2-yl)benzenesulfonamide]: 1.7 nM.

For the compound `COc1nc(-c2oc(-c3ccccc3)nc2-c2ccncc2)cnc1N` [Compound 90, 3-methoxy-5-(2-phenyl-4-(pyridin-4-yl)oxazol-5-yl)pyrazin-2-amine], the IC50 was found to be 113 nM. Turning to `c1ccc(-c2nc(-c3ccncc3)c(-c3cnc4[nH]ccc4c3)[nH]2)cc1` [Compound 45, 5-(2-phenyl-4-(pyridin-4-yl)-1H-imidazol-5-yl)-1H-pyrrolo[2,3-b]pyridine], the IC50 was determined as 4.6 nM.
